Here are results for 18 compounds from PubChem BioAssay AID434987 (Southern Research Specialized Biocontainment Screening …, 2010).

This assay relates to M. tuberculosis H37Rv growth inhibition with meropenem. Put plainly: dose response, H37Rv, with and without meropenem (AID 434987).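 Also: growth over 7 days at 37 °C before Alamar Blue read on day 9.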
Where [1] appears, read: M. tuberculosis H37Rv growth inhibition, measured here: IC50 without meropenem.
Setting [2] is: M. tuberculosis H37Rv growth inhibition, measured here: IC90 without meropenem.
[3] abbreviates: measured here: IC90 with meropenem.

Structures are written as SMILES. Active and inactive are the calls of the source. No rule for the calls is given here.

For `CCOc1ccc2nc(SC3CC(=O)N(c4cccc(OC)c4)C3=O)sc2c1` (configuration not stated), the IC50 (in general, the concentration that inhibits the measured activity by half) was 23.5 µM (inactive). Under setting [1], this compound showed a half-maximal inhibitory concentration (IC50) of 44.2 µM. In addition, the IC90 – broadly, the concentration needed for an effect of 90% – under setting [2] came to 49.9 µM. This compound displayed an IC90 under setting [3] of 25.7 µM.

For the compound `Cc1ccccc1OCC(=O)Nc1ccccc1N1CCCCC1`, the IC50 is 5.94 µM. Also, the IC50 under setting [1] came to 96.4 µM. Besides, the IC90 under setting [2] is more than 100 µM. Also, the IC90 under setting [3] was determined as 13.5 µM.

Turning to `C/C(=N/NC(=O)c1cccs1)c1ccc(NC(=O)COc2ccc(Cl)cc2)cc1`, the IC50 was > 100 µM (inactive). Also, the IC50 under setting [1] is more than 100 µM. Under setting [2], this compound came in with an IC90 of more than 100 µM. The compound further returned an IC90 under setting [3] of more than 100 µM.

For `Fc1ccc(-c2csc(NC(=S)Nc3ccccc3)n2)cc1`, the IC50 is 7.55 µM. Further, the IC50 under setting [1] was more than 100 µM. Under setting [2], the IC90 was more than 100 µM. This compound yielded an IC90 under setting [3] of more than 50 µM.

Turning to `CCn1c(SCc2nc(-c3cccs3)no2)nnc1-c1c[nH]c2ccccc12`, the IC50 is > 100 µM (inactive). Also, under setting [1], the IC50 is more than 100 µM. Moreover, under setting [2], the IC90 was more than 100 µM. The compound also had a concentration for an effect of 90% (IC90) under setting [3] of more than 100 µM.

As to `O=C(c1ccccc1)N1CCC(CC2CC(c3cccc(Br)c3)=NO2)(C(=O)NCC2CCCCC2)CC1` (configuration not stated), the IC50 is 46.8 µM (inactive). Under setting [1], this compound gave an IC50 of more than 100 µM. The same compound returned an IC90 under setting [2] of more than 100 µM. This compound also yielded an IC90 under setting [3] of more than 100 µM.

On to `Cc1ccc(Cn2c(C(CO)Nc3nc(-c4ccc(Cl)c([N+](=O)[O-])c4)cs3)nc3ccccc32)cc1` (configuration not stated), for which the IC50 was > 100 µM (inactive). The concentration for half-maximal inhibition (IC50) under setting [1] is more than 100 µM. For the same compound, under setting [2], the IC90 is more than 100 µM. For the same compound, under setting [3], the IC90 is more than 100 µM.

`Cc1cc(C)cc(NC(=S)NN)c1`: the IC50 is 55.5 µM (inactive). Moreover, the IC50 under setting [1] is 78.3 µM. Under setting [2], this compound came in with an IC90 of more than 100 µM. The same compound had a 90% effect concentration (IC90) under setting [3] of more than 100 µM.

Take `C[C@H](NC(=O)c1[nH]cnc1C(=O)Nc1cccc(Cl)c1)c1ccccc1`: the IC50 is 3.59 µM. For the same compound, the IC50 under setting [1] was more than 100 µM. Moreover, the IC90 under setting [2] is more than 100 µM. The compound further showed a 90% effect concentration (IC90) under setting [3] of more than 100 µM.

As to `Cc1cccnc1NC(=S)NC(=O)c1cncc(Br)c1`, the IC50 was 4.68 µM. Also, the IC50 under setting [1] came out at 40.3 µM. Moreover, the IC90 under setting [2] was more than 100 µM. Besides, the IC90 under setting [3] was more than 100 µM.

For `Cc1cc(N2CCN(c3ccccc3)CC2)nc2ccccc12`, the IC50 is > 100 µM (inactive). For the same compound, under setting [1], the IC50 is more than 100 µM. The IC90 under setting [2] was more than 100 µM. This compound registered a concentration for an effect of 90% (IC90) under setting [3] of more than 100 µM.

With `Cc1cc(C)c(C)c(S(=O)(=O)N2C(=S)NC(=O)C2CC(C)C)c1C` (configuration not stated), the IC50 was > 100 µM (inactive). In addition, the IC50 under setting [1] was more than 100 µM. The same compound registered an IC90 under setting [2] of more than 100 µM. Under setting [3], the IC90 was more than 100 µM.

On to `Cc1cc(C(=O)Nc2ccc(Br)cc2F)n(-c2ccccc2)n1`, for which the IC50 was > 100 µM (inactive). This compound also had a 50% inhibitory concentration (IC50) under setting [1] of more than 100 µM. Also, the IC90 under setting [2] was more than 100 µM. Further, the IC90 under setting [3] was more than 100 µM.

Consider `Cc1nnc(SCc2ccc(C(=O)Nc3cc(Cl)ccc3C)cc2)s1`, for which the IC50 was > 100 µM (inactive). In addition, the half-inhibitory concentration (IC50) under setting [1] is more than 100 µM. The compound further displayed an IC90 under setting [2] of more than 100 µM. This compound also returned an IC90 under setting [3] of more than 100 µM.

Consider `C=CCSc1nnc2c(n1)OC(c1c(C)[nH]n(-c3ccccc3)c1=O)Nc1ccccc1-2` (configuration not stated), for which the IC50 is 28 µM. Under setting [1], this compound had an IC50 of more than 100 µM. This compound registered an IC90 under setting [2] of more than 100 µM. The IC90 under setting [3] was more than 100 µM.

With `COc1ccc(NC(=O)C/C(C)=N/NC(=O)c2cnccn2)cc1`, the IC50 was 20.1 µM. The compound further showed an IC50 under setting [1] of more than 100 µM. Under setting [2], this compound came in with an IC90 of more than 100 µM. For the same compound, the IC90 under setting [3] was more than 100 µM.

Consider `CCOc1ccc(-c2nnc(-c3cccs3)o2)cc1OCC`, for which the IC50 was > 100 µM (inactive). The same compound showed an IC50 under setting [1] of more than 100 µM. The compound further came in with an IC90 under setting [2] of more than 100 µM. Under setting [3], this compound came in with an IC90 of more than 100 µM.

As to `COc1ccc(-n2cc(-c3ccccc3)c3c(NN4CCOCC4)ncnc32)cc1`, the IC50 is 22.4 µM (inactive). This compound yielded an IC50 under setting [1] of 32.8 µM. This compound returned a concentration for an effect of 90% (IC90) under setting [2] of 60.3 µM. The compound further displayed an IC90 under setting [3] of 36.1 µM.
